Residues, ends and D or L forms follow the SMILES beside them.
How the values were obtained:
[1] = test system: S. epidermidis (ATCC 35984) biofilm; experiment: Biofilm-formation inhibitory activity, crystal violet staining; format: cell-based, Staphylococcus epidermidis; conditions: CV staining, TSB, 10^6 CFU/mL, 24 h, 37°C, 0.98-250 µg/mL
Protocol: The biofilm inhibitory activity of peptide derivatives was assessed by modified crystal violet (CV) staining. Briefly, the pellet of S. epidermidis (ATCC 35984) was collected through centrifugation of bacterial suspensions grown overnight at 2,500 × g for 5 min. Subsequently, the pellet was resuspended and diluted with TSB to a final concentration of 10^6 CFU/mL. Then, 50 µL of these diluted suspensions was transferred to 96-well microplates containing same volume of peptide derivatives in 10 mM phosphate buffer saline (PBS; Caisson Labs, USA), with concentrations ranging from 0.98 to 250 µg/mL. Vancomycin was used as positive control while TSB medium without bacteria was used as negative control. After 24 h of incubation and reaching static growth at 37°C, culture media as well as planktonic cells were removed, then the biofilm in each well was washed thrice with 0.85% NaCl. For CV staining, biofilms were fixed with 95% ethanol and stained with a 0.1% (v/v) CV solution for 15 min. After removal of excess dye, each well was washed thrice with 0.85% NaCl and resuspended in 95% ethanol to dissolve bound dye. Absorbance was determined at 570 nm using a Multiskan SkyHigh microplate reader (Thermo Scientific™, Singapore). All experiments were done in six technical replicates and repeated independently three times. Minimum biofilm inhibitory concentrations at 50% and 90% (MBIC50 and MBIC90) refers to concentrations of the peptide at which the inhibition of biofilm was at least 50% and 90%, respectively.

[2] = test system: human red blood cells (hRBCs); experiment: Hemolysis activity (hemoglobin release); format: cell-based; conditions: 1 h, 37°C
Protocol: The effect of peptides on human red blood cells (hRBCs) was assessed by observing the release of hemoglobin upon treated with peptide. Briefly, the hRBCs were obtained from healthy volunteers and subsequently diluted in 10 mM PBS to a concentration of 2% hRBCs. An equal volume of 2% hRBCs and peptide at concentration of 0.98–250 µg/mL in 10 mM PBS mixtures were incubated for 1 h at 37°C. Following incubation, the suspension was centrifuged, then supernatants were collected and transferred to 96-well microplates for measurement of absorbance at OD of 405 nm (OD405). This study was performed in accordance with the Thammasat University Ethics Committee (COA No. 066/2562). Written informed consent was obtained from all volunteers.

[3] = test system: all gram-negative bacterial strains; experiment: Mean MIC and therapeutic index, gram-negative strains; format: cell-based; conditions: four gram-negative strains
Protocol: The minimal inhibitory concentrations (MICs) of peptide derivatives versus planktonic bacteria were assessed using a modification of the broth microdilution assay previously described in the National Committee for Clinical Laboratory Standards (NCCLS). In brief, bacteria at mid-logarithmic growth were collected by centrifugation at 2,500 × g for 5 min. Subsequently, the pellet was resuspended and adjusted in Mueller-Hinton Broth (MHB; BD Bacto™, USA) to an OD620 of 0.05. Fifty µL of bacterial suspensions was transferred to 96-well microplates. Later, 50 µL of peptide derivatives at 0.98–250 µg/mL in 10 mM PBS, was added to wells and incubated for 24 h at 37°C with continuous shaking at 220 rpm. […] The experiments were done in three technical replicates and repeated independently.
The therapeutic index (TI) is widely used for evaluating a peptide’s efficacy and safety. It is the ratio between the minimum hemolytic concentration (MHC, the concentration causing 10% hemolysis) and the geometric mean (GM) value of the MIC [15]. […] While, both lysine-substituted peptides (BiF2_7K and BiF2_5K7K) had higher TIs against all tested biofilm-forming bacteria than did the two parent peptides, and the TI of BiF2_5K7K was higher than that of BiF2_7K.

[4] = test system: human lung fibroblast MRC-5 cell lines (ATCC CCL-171); experiment: MTT cytotoxicity assay; format: cell-based; conditions: MRC-5, 250 µg/mL (maximum concentration tested), 24 h
Protocol: The toxicity of peptide BiF2_5K7K against human lung fibroblast MRC-5 cell lines (ATCC CCL-171) was investigated by MTT colorimetric assay. Briefly, MRC-5 cells were cultured in Minimum Essential Medium [MEM; supplemented with 10% heat-inactivated FBS and 1% Penicillin-Streptomycin] in 5% CO2 at 37°C. Following an overnight incubation, MRC-5 cells were diluted to 10,000 cells/well and placed in 96-well microplates. Subsequently, they were exposed to BiF2_5K7K at 0.98 to 250 µg/mL. After incubation for 24 h, MTT solution (0.4 mg/mL) was added to each well and incubated for an additional 3 h under 5% CO2 at 37°C. The supernatant was then removed and 100 µL DMSO added, and absorbance was measured at 570 nm using a microplate reader.

[5] = test system: planktonic S. epidermidis; experiment: Time-killing analysis; format: cell-based, Staphylococcus epidermidis; conditions: for number of S. epidermidis: within 4 h, MHB, 37°C
Protocol: The time-dependent bactericidal activity of BiF2_5K7K against planktonic S. epidermidis was determined as previously described. In brief, mid-log phase bacteria in MHB were exposed to BiF2_5K7K at MIC and/or MBC for 24 h at 37°C. The bacterial suspensions were obtained at specific time point (0, 2, 4, 6, 8 and 24 h), and 10-fold serially diluted with PBS and then plated on TSA. Untreated bacterial suspension was served as a control. After incubation, the number of CFUs was determined by colony count.

[6] = test system: S. epidermidis; experiment: Serum stability by MIC in human serum; format: cell-based, Staphylococcus epidermidis; conditions: 10^6 CFU/mL, 24 h, 37°C
Protocol: The stability of BiF2_5K7K in the presence of human serum was assessed by evaluating the MIC values, as previously described. Human serum was subjected to heat inactivation at 56°C for 30 min. Bacterial suspensions were then adjusted to a concentration of 10^6 CFU/mL in MHB supplemented with 25% and 50% human serum. These suspensions were mixed with two-fold serially diluted concentrations of BiF2_5K7K (ranging from 0.98 to 250 µg/mL) and incubated at 37°C for 24 h. MICs were subsequently determined as described above. The study protocol was ethically approved by the Thammasat University Ethics Committee (COA No. 066/2562). All volunteers provided written informed consent.

Question: Which results are given for `CC[C@H](C)[C@H](NC(=O)[C@H](CCCCN)NC(=O)[C@H](CCCCN)NC(=O)[C@@H](NC(=O)[C@H](CC(C)C)NC(=O)[C@@H](N)Cc1ccccc1)C(C)C)C(=O)N[C@@H](CCCCN)C(=O)N[C@@H](CCCCN)C(=O)N[C@H](C(=O)N[C@@H](CC(C)C)C(=O)N[C@@H](CCCNC(=N)N)C(=O)N[C@@H](CCCNC(=N)N)C(N)=O)[C@@H](C)CC` [BiF2_5K7K] (H-FLVKKIKKILRR-NH2; N-terminus assumed)?
Answer: MBIC50 ([1]; minimum concentration inhibiting biofilm formation more than 50%): 7.81 µg/mL; MBIC90 ([1]; minimum concentration inhibiting biofilm formation more than 90%): 31.25 µg/mL; hemolytic activity ([2]; at 250 µg/mL (maximum concentration tested)): less than 10%; MHC, minimum hemolytic concentration ([2]; peptide concentration causing 10% hemolysis of hRBCs, 2% hRBCs in 10 mM PBS, OD405): >250 µg/mL; GM-, geometric mean of MIC values from all gram-negative bacterial strains [3]: 93.75 µg/mL; cell viability [4]: > 99%; number of S. epidermidis ([5]; peptide at MBC): approximately 10^3 CFU/mL; regrowth ([5]; peptide at MIC, after 8 h): regrowth was observed; number of S. epidermidis ([5]; peptide at MIC): approximately 10^3 CFU/mL; MIC in the presence of human serum ([6]; MHB with 25% heat-inactivated human serum): 15.63 µg/mL; MIC in the presence of human serum ([6]; MHB with 50% heat-inactivated human serum): 15.63 µg/mL
